Reference: publication PMC6901909, “Synergy Pattern of Short Cationic Antimicrobial Peptides Against Multidrug-Resistant Pseudomonas aeruginosa” (Frontiers in Microbiology, 2019)
In brackets after ≈: the same amount, converted by molar mass. Peptide text beside a SMILES is read from it.

Columns and labels:
P. aeruginosa PA01-wt = assay: microbe, parasite or virus in culture; assay type: cell-based, Pseudomonas aeruginosa; conditions: short AMPs; microdilution, Mueller-Hinton broth, 18 h at 37°C, read visually; triplicate (n = 3)
MDR P. aeruginosa PA 910 = assay: microbe, parasite or virus in culture; assay type: cell-based, Pseudomonas aeruginosa; conditions: peptide alone, as listed in the FIC table
Outline: (§1)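 Inoculum 2–5 10^5 CFU/ml in Mueller-Hinton broth, compounds twofold serially diluted, polypropylene microtiter plates. Strains are MDR isolates from clinical and municipal waste water.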

MDR P. aeruginosa PA 919 = assay: microbe, parasite or virus in culture; assay type: cell-based, Pseudomonas aeruginosa; conditions: short AMPs; microdilution, Mueller-Hinton broth, 18 h at 37°C, read visually; triplicate (n = 3)
Outline: as §1

MDR P. aeruginosa PA253 = assay: microbe, parasite or virus in culture; assay type: cell-based, Pseudomonas aeruginosa; conditions: short AMPs; microdilution, Mueller-Hinton broth, 18 h at 37°C, read visually; triplicate (n = 3)
Outline: as §1

[1] = tested on: MDR isolate of P. aeruginosa (PA 910); conditions: checkerboard, MHb
Description: The checkerboard assay was used to determine the fractional inhibitory concentrations (FICs), following the protocol described in Koneman’s Color Atlas and Textbook of Diagnostic Microbiology ([Winn et al., 2006]). Briefly, combinations of peptides and antibiotics were prepared in 96-well plates (polypropylene, Corning) in a twofold dilution series. After the addition of a log-phase bacterial inoculum of 2–5 × 10^5 CFU/ml, plates were incubated at 37°C for 18 h. The FICs were determined by visual inspection and the effects of the combinations were determined using the FICs. The FIC was computed by adding two partial FIC values, FICA—the MIC of drug A, tested in combination with drug B divided by the MIC of drug A, tested alone and FICB—the MIC of drug B, tested in combination with drug A divided by the MIC of drug B, tested alone [FIC = FICA + FICB = (MICAB/MICA) + (MICBA/MICB), where MICA and MICB are the MICs of drugs A and B alone, respectively, and MICAB and MICBA are the MIC concentrations of the drugs in combination]. Here we use the European Committee for Antimicrobial Susceptibility Testing (EUCAST) definition, which is very similar to the definition provided by [Odds, 2003], except Odds define additive effects when FIC values are between 0.5 and 1 ([European Committee for Antimicrobial Susceptibility Testing [EUCAST] of the European Society of Clinical Microbiology and Infectious Diseases [ESCMID], 2000]; [Odds, 2003]). The combination of peptide (drug A) and antibiotics (drug B) was defined as synergistic if the FIC was ≤ 0.5, indifferent if the FIC was > 0.5 but ≤ 4.0 and antagonistic if the FIC was > 4.0.

MDR-PA919 = assay type: cell-based, Pseudomonas aeruginosa; conditions: peptide + polymyxin B; checkerboard; strain comparison (Table 7)
Description: (§2) The checkerboard assay was used to determine the fractional inhibitory concentrations (FICs), following the protocol described in Koneman’s Color Atlas and Textbook of Diagnostic Microbiology ([Winn et al., 2006]). Briefly, combinations of peptides and antibiotics were prepared in 96-well plates (polypropylene, Corning) in a twofold dilution series. After the addition of a log-phase bacterial inoculum of 2–5 × 10^5 CFU/ml, plates were incubated at 37°C for 18 h. The FICs were determined by visual inspection and the effects of the combinations were determined using the FICs. The FIC was computed by adding two partial FIC values, FICA—the MIC of drug A, tested in combination with drug B divided by the MIC of drug A, tested alone and FICB—the MIC of drug B, tested in combination with drug A divided by the MIC of drug B, tested alone [FIC = FICA + FICB = (MICAB/MICA) + (MICBA/MICB), where MICA and MICB are the MICs of drugs A and B alone, respectively, and MICAB and MICBA are the MIC concentrations of the drugs in combination]. […]

MDR-PA253 = assay type: cell-based, Pseudomonas aeruginosa; conditions: peptide + polymyxin B; checkerboard; strain comparison (Table 7)
Description: as §2

Structure (SMILES): CC[C@H](C)[C@H](NC(=O)[C@H](CCCNC(=N)N)NC(=O)[C@H](C)NC(=O)[C@H](CC(C)C)NC(=O)[C@@H](N)CCCNC(=N)N)C(=O)N[C@H](C(=O)N[C@H](C(=O)N[C@H](C(=O)N[C@@H](CCCNC(=N)N)C(=O)N[C@H](C(=O)N[C@@H](CCCNC(=N)N)C(=O)N[C@@H](CCCNC(=N)N)C(N)=O)C(C)C)[C@@H](C)CC)C(C)C)C(C)C [Peptide R11] (H-RLARIVVIRVRR-NH2)
- MIC against PA01 wt (P. aeruginosa PA01-wt): 16 µM (≈ 24.1 µg/mL)
- MIC against PA910 in μM (peptides, Table 4) (MDR P. aeruginosa PA 910): 64 µM
- MIC against MDR isolates of PA, PA919 (MDR P. aeruginosa PA 919): 32 µM
- MIC against MDR isolates of PA, PA253 (MDR P. aeruginosa PA253): 64 µM
- FIC mean (SD), combination with KAN ([1]; confirmation study, peptide + kanamycin, Indopt versions 1/8 MHb, mean of at least three measurements (n = 3), SD in brackets): 0.75 (0.17)
- FIC mean (SD), combination with TET ([1]; confirmation study, peptide + tetracycline, Indopt versions 1/8 MHb, mean of at least three measurements (n = 3), SD in brackets): 0.43 (0.12)
- FIC, combination with AMI ([1]; peptide + amikacin, for the Indopt versions 1/8 MHb, 2–5 × 10^5 CFU/ml, 37°C, 18 h, visual, determined once (n = 1)): 2
- FIC, combination with CEF ([1]; peptide + cefepime, for the Indopt versions 1/8 MHb, 2–5 × 10^5 CFU/ml, 37°C, 18 h, visual, determined once (n = 1)): 2
- FIC, combination with CET ([1]; peptide + ceftazidime, for the Indopt versions 1/8 MHb, 2–5 × 10^5 CFU/ml, 37°C, 18 h, visual, determined once (n = 1)): 1
- FIC, combination with CIP ([1]; peptide + ciprofloxacin, for the Indopt versions 1/8 MHb, 2–5 × 10^5 CFU/ml, 37°C, 18 h, visual, determined once (n = 1)): 0.53
- FIC, combination with ERY ([1]; peptide + erythromycin, for the Indopt versions 1/8 MHb, 2–5 × 10^5 CFU/ml, 37°C, 18 h, visual, determined once (n = 1)): 0.53
- FIC, combination with IMI ([1]; peptide + imipenem, for the Indopt versions 1/8 MHb, 2–5 × 10^5 CFU/ml, 37°C, 18 h, visual, determined once (n = 1)): 0.63
- FIC, combination with KAN ([1]; peptide + kanamycin, for the Indopt versions 1/8 MHb, 2–5 × 10^5 CFU/ml, 37°C, 18 h, visual, determined once (n = 1)): 0.5
- FIC, combination with MER ([1]; peptide + meropenem, for the Indopt versions 1/8 MHb, 2–5 × 10^5 CFU/ml, 37°C, 18 h, visual, determined once (n = 1)): 0.51
- FIC, combination with PIP ([1]; peptide + piperacillin, for the Indopt versions 1/8 MHb, 2–5 × 10^5 CFU/ml, 37°C, 18 h, visual, determined once (n = 1)): 1
- FIC, combination with PMB ([1]; peptide + polymyxin B, for the Indopt versions 1/8 MHb, 2–5 × 10^5 CFU/ml, 37°C, 18 h, visual, determined once (n = 1)): 0.63
- FIC, combination with TET ([1]; peptide + tetracycline, for the Indopt versions 1/8 MHb, 2–5 × 10^5 CFU/ml, 37°C, 18 h, visual, determined once (n = 1)): 0.53
- FIC, combination with TOB ([1]; peptide + tobramycin, for the Indopt versions 1/8 MHb, 2–5 × 10^5 CFU/ml, 37°C, 18 h, visual, determined once (n = 1)): 2
- FIC against polymyxin B, MDR-PA919 (MDR-PA919): 0.56
- FIC against polymyxin B, MDR-PA253 (MDR-PA253): 0.56
